Source: article PMC11988556, “Combined Cytotoxic Effects of the Fungicide Azoxystrobin and Common Food-Contaminating Mycotoxins” (Foods, 2025)

How the values were obtained:
HepG2 cells [1] = assay: resazurin reduction cytotoxicity assay, with CI-isobologram analysis of mixtures; assay type: cell-based, human
HepG2 cells [2] = assay: MTT cytotoxicity assay, with CI-isobologram analysis of mixtures; assay type: cell-based, human; conditions: for reduction of cell viability at the higher concentration tested: MTT, highest concentration of the combination experiment
[3] = HepG2, 24 h, resazurin, highest concentration of the combination experiment
[4] = HepG2, 24 h exposure, resazurin assay, spread in brackets, read-out: IC50
[5] = resazurin method, HepG2, 24 h, median-effect equation, read-out: Dm (median-effect concentration)
[6] = IC50 from MTT individual cytotoxicity experiments, used to set combination ratios, 24 h, read-out: IC50 Concentration
[7] = MTT method, HepG2, 24 h, median-effect equation, read-out: Dm (median-effect concentration)
[8] = read-out: Dm (median-effect concentration)

SMILES | reduction of cell viability at the higher concentration tested (HepG2 cells [1]; [3]) | IC50 (HepG2 cells [1]; [4]) | IC50 (HepG2 cells [1]; [5]) | reduction of cell viability at the higher concentration tested (HepG2 cells [2]; HepG2, 24 h) | IC50 (HepG2 cells [2]; [6]) | IC50 (HepG2 cells [2]; [7]) | IC50 (HepG2 cells [1]; Homo sapiens, HepG2, 24 h exposure, resazurin assay, spread in brackets, read-out: IC50) | IC50 (HepG2 cells [1]; Homo sapiens, resazurin method, HepG2, 24 h, median-effect equation, read-out: Dm (median-effect concentration)) | IC50 (HepG2 cells [2]; Homo sapiens, HepG2, IC50 from MTT individual cytotoxicity experiments, used to set combination ratios, 24 h, read-out: IC50 Concentration) | IC50 (HepG2 cells [2]; Homo sapiens, MTT method, HepG2, 24 h, median-effect equation, read-out: Dm (median-effect concentration)) | reduction of cell viability at the higher concentration tested (HepG2 cells [1]) | IC50 (HepG2 cells [1]; [8]) | IC50 (HepG2 cells [1]; read-out: IC50) | IC50 (HepG2 cells [2]; [8]) | IC50 (HepG2 cells [2]; read-out: IC50 Concentration)
CO/C=C(/C(=O)OC)c1ccccc1Oc1cc(Oc2ccccc2C#N)ncn1 [AZX, azoxystrobin] | 27% | 231 µM | 638 µM | 43% | 206 µM | 284 µM |  |  |  |  |  |  |  |  | 
C[C@@H]1Cc2c(Cl)cc(C(=O)N[C@@H](Cc3ccccc3)C(=O)O)c(O)c2C(=O)O1 [OTA, ochratoxin A] | 44% |  |  | 59% |  |  | 147 µM | 87.6 µM | 195 µM | 57.1 µM |  |  |  |  | 
CC1=C[C@H]2O[C@@H]3[C@H](O)C[C@](C)([C@@]2(CO)[C@H](O)C1=O)[C@]31CO1 [DON, deoxynivalenol] | 59% | 6.61 µM | 5.33 µM | 69% | 9.39 µM | 2.74 µM |  |  |  |  |  |  |  |  | 
CC(=O)OC[C@]12C[C@H](OC(=O)CC(C)C)C(C)=C[C@H]1O[C@@H]1[C@H](O)[C@@H](OC(C)=O)[C@@]2(C)[C@]12CO2 [T2, T-2 toxin] |  |  |  |  |  |  |  |  |  |  | 40% | 0.1 µM | 0.051 µM | 0.06 µM | 0.059 µM
